Measurements as given in US5096898A, “Bile acid unsaturated derivatives and pharmaceutical compositions containing them” (Giuliani S.p.A., priority 1990, dated 1992).
In brackets after ≈: the same amount, converted by molar mass. Entries after “also recorded” stand apart in the source; their conditions may differ. Like-named read-outs stand apart in the source and are kept apart here.

Columns and labels:
[1] = Effect on bile flow and bile lipid secretion; format: in vivo, rat; settings: for SMAB (maximum secretion) / SMPL (maximum bile lipid secretion) / SMVo = maximum bile flow / SMXOL (maximum bile lipid secretion): intravenous, 6 μmoles/min/kg during 1 hour (stated for TOL-UDCA)
Experimental: (§1) Trans 3α,7β-dihydroxy-5β-24-cholen-27-oic acid (TOL-UDCA) was studied compared with ursodeoxycholic acid and the glycine and taurine conjugated thereof also in the following pharmacological tests:
effects on the secretion of bile, bile acids, cholesterol and phospholipids.
(§2) TOL-UDCA was administered to rat by intravenous and intraduodenal routes at a dose of 6 μmoles/min/kg during 1 hour.
SMVo = maximum bile flow
SM = maximum bile lipid secretion

[2] = Physico-chemical characteristics (Table 1); format: physicochemical; parameters: Critical micellar concentration (CMC): unit not given here; settings: for chromatographic logP: c18 hplc
[3] = Hepatic absorption, metabolism and biliary secretion, intravenous; format: in vivo; settings: rat
Experimental: as §1
hepatic and intestinal metabolism (in vivo and in vitro)
hepatic and intestinal absorption
as §2

[4] = read-out: Retention times with C18-HPLC (K') (converted)

Row | SMILES | SMAB (maximum secretion) [1] | SMPL (maximum bile lipid secretion) [1] | SMVo = maximum bile flow [1] | SMXOL (maximum bile lipid secretion) [1] | Critical micellar concentration (CMC) [2] | pKa [2] | solubility [2] | chromatographic logP [2, 4] | pKa ([2]; read-out: pKa) | bile flow / choleretic effect (in words) ([1]; compared with UDCA natural analogs and conjugated forms) | kinetic of recovery in the bile ([3]; intravenous, 6 μmoles/min/kg during 1 hour) | accumulation in the hepatic cells ([3]; in vivo) | disappearance from the bile ([3]; in vivo) | presence in bile 2 hours after end of infusion ([3]; in vivo) | chromatographic logP [2] | solubility ([2]; read-out: Solubility)
1 | C[C@H](CCC(=O)NCC(=O)O)[C@H]1CC[C@H]2[C@@H]3[C@@H](O)C[C@@H]4C[C@H](O)CC[C@]4(C)[C@H]3CC[C@]12C [G-UDCA] | 2,10 μmol/min/kg | 0,39 μmol/min/kg | 2.4 mL/h/kg | 0,028 μmol/min/kg | 12 | 3.9 | 3 µM (≈ 1.35 µg/mL) | 0.0253 | – | – | – | – | – | – | – | –
2 | C[C@H](CCC(=O)NCCS(=O)(=O)O)[C@H]1CC[C@H]2[C@@H]3[C@@H](O)C[C@@H]4C[C@H](O)CC[C@]4(C)[C@H]3CC[C@]12C [T-UDCA] | 2,40 μmol/min/kg | 0,18 μmol/min/kg | 2.1 mL/h/kg | 0,014 μmol/min/kg | 8 | – | – | -0.00877 | 2 | – | – | – | – | – | – | –
3 | C[C@H](CC/C=C/CC(=O)O)[C@H]1CC[C@H]2[C@@H]3[C@@H](O)C[C@@H]4C[C@H](O)CC[C@]4(C)[C@H]3CC[C@]12C [TOL-UDCA, Trans-3α,7β-dihydroxy-5β-24-cholen-27-oic acid] | 1,02 μmol/min/kg | 0,12 μmol/min/kg | 5.4 mL/h/kg | 0,020 μmol/min/kg | 5 | 5.02 | 10 µM (≈ 4.33 µg/mL) | – | – | increases bile flow and this effect is stronger than the one of UDCA natural analogs and of the conjugated forms thereof; also recorded: strong choleretic effect after intravenous or intraduodenal administrations, which effect is higher than that of UDCA | recovered in the bile with a slow kinetic | accumulates in the hepatic cells | disappears from the bile with a slow kinetic | a noticeable amount of this bile acid is still present 2 hours after | 0.96 | –
4 | C[C@H](CCC(=O)O)[C@H]1CC[C@H]2[C@@H]3[C@@H](O)C[C@@H]4C[C@H](O)CC[C@]4(C)[C@H]3CC[C@]12C [UDCA, ursodeoxycholic acid] | 3,02 μmol/min/kg | 0,22 μmol/min/kg | 3.6 mL/h/kg | 0,022 μmol/min/kg | 19 | – | – | 0.563 | 5.06 | – | – | – | – | – | – | 9 µM (≈ 3.53 µg/mL)
